Assay results reported in ChEMBL document CHEMBL3046407, “Toxicity of monoterpenes against larvae and adults of Colorado potato beetle, Leptinotarsa decemlineata Say (Coleoptera: Chrysomelidae)” (2007).

Experiments:
[1] = system: Leptinotarsa decemlineata; format: functional, Instar larval stage
[2] = system: Leptinotarsa decemlineata; assay: Insecticidal activity against first-instar larval stage of Leptinotarsa decemlineata infested potato leaves assessed as mortality at 10 mg after 24 hr relative to control; format: functional
[3] = system: Leptinotarsa decemlineata; format: functional, Instar larval stage; remark: listed apart in the source
[4] = system: Leptinotarsa decemlineata; format: functional, Instar larval stage; remark: listed apart in the source
[5] = system: Leptinotarsa decemlineata; format: functional, Instar larval stage; remark: listed apart in the source
[6] = system: Leptinotarsa decemlineata; assay: Insecticidal activity against third-instar larval stage of Leptinotarsa decemlineata infested potato leaves assessed as mortality at 20 mg after 24 hr relative to control; format: functional
[7] = system: Leptinotarsa decemlineata; assay: Insecticidal activity against first-instar larval stage of Leptinotarsa decemlineata infested potato leaves assessed as mortality at 20 mg after 96 hr relative to control; format: functional
[8] = system: Leptinotarsa decemlineata; assay: Insecticidal activity against second-instar larval stage of Leptinotarsa decemlineata infested potato leaves assessed as mortality at 10 mg after 12 hr relative to control; format: functional
[9] = system: Leptinotarsa decemlineata; assay: Insecticidal activity against first-instar larval stage of Leptinotarsa decemlineata infested potato leaves assessed as mortality at 20 mg after 48 hr relative to control; format: functional
[10] = system: Leptinotarsa decemlineata; assay: Insecticidal activity against first-instar larval stage of Leptinotarsa decemlineata infested potato leaves assessed as mortality at 10 mg after 12 hr relative to control; format: functional
[11] = system: Leptinotarsa decemlineata; format: functional, Instar larval stage; remark: listed apart in the source
[12] = system: Leptinotarsa decemlineata; format: functional, Instar larval stage; remark: listed apart in the source
[13] = system: Leptinotarsa decemlineata; assay: Insecticidal activity against first-instar larval stage of Leptinotarsa decemlineata infested potato leaves assessed as mortality at 20 mg after 24 hr relative to control; format: functional
[14] = system: Leptinotarsa decemlineata; assay: Insecticidal activity against third-instar larval stage of Leptinotarsa decemlineata infested potato leaves assessed as mortality at 10 mg after 24 hr relative to control; format: functional
[15] = system: Leptinotarsa decemlineata; assay: Insecticidal activity against adult Leptinotarsa decemlineata infested potato leaves assessed as mortality at 20 mg after 96 hr relative to control; format: functional
[16] = system: Leptinotarsa decemlineata; format: functional, Instar larval stage; remark: listed apart in the source
[17] = system: Leptinotarsa decemlineata; assay: Insecticidal activity against first-instar larval stage of Leptinotarsa decemlineata infested potato leaves assessed as mortality at 10 mg after 48 hr relative to control; format: functional
[18] = system: Leptinotarsa decemlineata; assay: Insecticidal activity against adult Leptinotarsa decemlineata infested potato leaves assessed as mortality at 20 mg after 12 hr relative to control; format: functional
[19] = system: Leptinotarsa decemlineata; assay: Insecticidal activity against first-instar larval stage of Leptinotarsa decemlineata infested potato leaves assessed as mortality at 20 mg after 12 hr relative to control; format: functional
[20] = system: Leptinotarsa decemlineata; assay: Insecticidal activity against third-instar larval stage of Leptinotarsa decemlineata infested potato leaves assessed as mortality at 10 mg after 12 hr relative to control; format: functional
[21] = system: Leptinotarsa decemlineata; format: functional, Instar larval stage; remark: listed apart in the source
[22] = system: Leptinotarsa decemlineata; assay: Insecticidal activity against adult Leptinotarsa decemlineata infested potato leaves assessed as mortality at 20 mg after 24 hr relative to control; format: functional
[23] = system: Leptinotarsa decemlineata; assay: Insecticidal activity against adult Leptinotarsa decemlineata infested potato leaves assessed as mortality at 10 mg after 48 hr relative to control; format: functional
[24] = system: Leptinotarsa decemlineata; assay: Insecticidal activity against adult Leptinotarsa decemlineata infested potato leaves assessed as mortality at 10 mg after 96 hr relative to control; format: functional
[25] = system: Leptinotarsa decemlineata; format: functional, Instar larval stage; remark: listed apart in the source
[26] = system: Leptinotarsa decemlineata; assay: Insecticidal activity against adult Leptinotarsa decemlineata infested potato leaves assessed as mortality at 10 mg after 24 hr relative to control; format: functional
[27] = system: Leptinotarsa decemlineata; assay: Insecticidal activity against first-instar larval stage of Leptinotarsa decemlineata infested potato leaves assessed as mortality at 10 mg after 96 hr relative to control; format: functional
[28] = system: Leptinotarsa decemlineata; assay: Insecticidal activity against adult Leptinotarsa decemlineata infested potato leaves assessed as mortality at 20 mg after 48 hr relative to control; format: functional
[29] = system: Leptinotarsa decemlineata; assay: Insecticidal activity against third-instar larval stage of Leptinotarsa decemlineata infested potato leaves assessed as mortality at 20 mg after 12 hr relative to control; format: functional
[30] = system: Leptinotarsa decemlineata; assay: Insecticidal activity against adult Leptinotarsa decemlineata infested potato leaves assessed as mortality at 10 mg after 12 hr relative to control; format: functional
[31] = system: Leptinotarsa decemlineata; format: functional, Instar larval stage; remark: listed apart in the source
[32] = system: Leptinotarsa decemlineata; assay: Insecticidal activity against second-instar larval stage of Leptinotarsa decemlineata infested potato leaves assessed as mortality at 20 mg after 12 hr relative to control; format: functional

Q: What does the source list for `CC(C)[C@H]1CC[C@@H](C)C[C@@H]1O` [ISOMENTHOL]?
A: mortality [1]: 3.3%; mortality [2]: 3.3%; mortality [3]: 0%; mortality [4]: 0%; mortality [5]: 0%; mortality [6]: 0%; mortality [7]: 0%; mortality [8]: 0%; mortality [9]: 0%; mortality [10]: 3.3%; mortality [11]: 0%; mortality [12]: 0%; mortality [13]: 0%; mortality [14]: 0%; mortality [15]: 26.7%; mortality [16]: 0%; mortality [17]: 6.7%; mortality [18]: 6.7%; mortality [19]: 0%; mortality [20]: 0%; mortality [21]: 0%; mortality [22]: 6.7%; mortality [23]: 30%; mortality [24]: 33.3%; mortality [25]: 6.7%; mortality [26]: 20%; mortality [27]: 10%; mortality [28]: 20%; mortality [29]: 0%; mortality [30]: 0%; mortality [31]: 0%; mortality [32]: 0%

Q: Which mortality [1] does the source give for `CC1(C)C2CCC1(C)C(O)C2` (stereo not drawn) [BORNEOL] here?
A: 0%

Q: And the mortality [2]?
A: 0%

Q: What about the mortality [3] of the same compound?
A: 0%

Q: And the mortality [4]?
A: 16.7%

Q: What about the mortality [5] of the same compound?
A: 0%

Q: What about the mortality [6] of the same compound?
A: 0%

Q: What about the mortality [7] of the same compound?
A: 16.7%

Q: And the mortality [8]?
A: 0%

Q: What about the mortality [9] of the same compound?
A: 6.7%

Q: What about the mortality [10] of the same compound?
A: 0%

Q: What about the mortality [11] of the same compound?
A: 0%

Q: What about the mortality [12] of the same compound?
A: 0%

Q: And the mortality [13]?
A: 0%

Q: What about the mortality [14] of the same compound?
A: 0%

Q: What about the mortality [15] of the same compound?
A: 66.7%

Q: And the mortality [16]?
A: 0%

Q: What about the mortality [17] of the same compound?
A: 0%

Q: And the mortality [18]?
A: 3.3%

Q: What about the mortality [19] of the same compound?
A: 0%

Q: What about the mortality [20] of the same compound?
A: 0%

Q: And the mortality [21]?
A: 23.3%

Q: And the mortality [22]?
A: 20%

Q: What about the mortality [23] of the same compound?
A: 13.3%

Q: What about the mortality [24] of the same compound?
A: 23.3%

Q: What about the mortality [25] of the same compound?
A: 0%

Q: And the mortality [26]?
A: 0%

Q: What about the mortality [27] of the same compound?
A: 13.3%

Q: What about the mortality [28] of the same compound?
A: 66.7%

Q: What about the mortality [29] of the same compound?
A: 0%

Q: What about the mortality [30] of the same compound?
A: 0%

Q: And the mortality [31]?
A: 20%

Q: What about the mortality [32] of the same compound?
A: 0%

Q: How did the mortality [1] turn out when `CC12CCC(CC1=O)C2(C)C` (stereo not drawn) [CAMPHOR] was run?
A: 33.3%

Q: What about the mortality [2] of the same compound?
A: 0%

Q: And the mortality [3]?
A: 46.7%

Q: And the mortality [4]?
A: 86.7%

Q: What about the mortality [5] of the same compound?
A: 83.3%

Q: And the mortality [6]?
A: 30%

Q: What about the mortality [7] of the same compound?
A: 86.7%

Q: What about the mortality [8] of the same compound?
A: 13.3%

Q: And the mortality [9]?
A: 86.7%

Q: And the mortality [10]?
A: 0%

Q: And the mortality [11]?
A: 63.3%

Q: And the mortality [12]?
A: 6.7%

Q: What about the mortality [13] of the same compound?
A: 53.3%

Q: What about the mortality [14] of the same compound?
A: 0%

Q: And the mortality [15]?
A: 93.3%

Q: What about the mortality [16] of the same compound?
A: 6.7%

Q: And the mortality [17]?
A: 23.3%

Q: What about the mortality [18] of the same compound?
A: 6.7%

Q: And the mortality [19]?
A: 30%

Q: And the mortality [20]?
A: 0%

Q: What about the mortality [21] of the same compound?
A: 86.7%

Q: What about the mortality [22] of the same compound?
A: 13.3%

Q: What about the mortality [23] of the same compound?
A: 36.7%

Q: What about the mortality [24] of the same compound?
A: 56.7%

Q: And the mortality [25]?
A: 36.7%

Q: What about the mortality [26] of the same compound?
A: 0%

Q: And the mortality [27]?
A: 76.7%

Q: What about the mortality [28] of the same compound?
A: 43.3%

Q: And the mortality [29]?
A: 26.7%

Q: What about the mortality [30] of the same compound?
A: 0%

Q: And the mortality [31]?
A: 70%

Q: What about the mortality [32] of the same compound?
A: 36.7%

Q: `CC1=CC[C@@H](C(C)(C)O)CC1` [ALPHA-TERPINEOL] was tested. Which mortality [1] did it give?
A: 20%

Q: What about the mortality [2] of the same compound?
A: 6.7%

Q: And the mortality [3]?
A: 6.7%

Q: What about the mortality [4] of the same compound?
A: 6.7%

Q: What about the mortality [5] of the same compound?
A: 3.3%

Q: And the mortality [6]?
A: 13.3%

Q: And the mortality [7]?
A: 30%

Q: What about the mortality [8] of the same compound?
A: 0%

Q: And the mortality [9]?
A: 26.7%

Q: What about the mortality [10] of the same compound?
A: 3.3%

Q: And the mortality [11]?
A: 6.7%

Q: What about the mortality [12] of the same compound?
A: 0%

Q: What about the mortality [13] of the same compound?
A: 23.3%

Q: What about the mortality [14] of the same compound?
A: 0%

Q: What about the mortality [15] of the same compound?
A: 23.3%

Q: And the mortality [16]?
A: 0%

Q: What about the mortality [17] of the same compound?
A: 13.7%

Q: And the mortality [18]?
A: 0%

Q: What about the mortality [19] of the same compound?
A: 16.7%

Q: And the mortality [20]?
A: 0%

Q: And the mortality [21]?
A: 10%

Q: What about the mortality [22] of the same compound?
A: 0%

Q: What about the mortality [23] of the same compound?
A: 6.7%

Q: What about the mortality [24] of the same compound?
A: 16.7%

Q: And the mortality [25]?
A: 23.3%

Q: What about the mortality [26] of the same compound?
A: 0%

Q: And the mortality [27]?
A: 16.7%

Q: What about the mortality [28] of the same compound?
A: 0%

Q: What about the mortality [29] of the same compound?
A: 13.3%

Q: And the mortality [30]?
A: 0%

Q: And the mortality [31]?
A: 13.3%

Q: And the mortality [32]?
A: 0%
